Patent publication US10010545B1, “Antibiotic compositions and methods of use” (University of South Florida, priority 2013, dated 2018)

Experiments:
Klebesiella pneumonia = experiment: Growth testing against ESKAPE pathogens: Klebesiella pneumonia; type: cell-based, Klebsiella pneumoniae; design: key: Growth; X: No Growth
Procedure: (§1) Six analogs (FIG. 2) of the ciprofloxacin-N thiolated β-lactam were successfully synthesized. All these compounds were then tested against ESKAPE pathogens for bioactivity. The ESKAPE pathogens are a collection of six deadly superbugs, Enterococcus faecium, Staphylococcus aureus, Klebsiella pneumoniae, Acinetobacter baumannii, Pseudomonas aeruginosa, and Enterobacter species. […] G denotes growth and X denotes no growth in the tables.

Staphylococcus aureus = experiment: Growth testing against ESKAPE pathogens: Staphylococcus aureus; type: cell-based; design: key to Activity against Staphylococcus aureus (growth observed): Growth; X: No Growth
Procedure: as §1

Acinetobacter baumannii = experiment: Growth testing against ESKAPE pathogens: Acinetobacter baumannii; type: cell-based; design: key: Growth; X: No Growth
Procedure: as §1

Pseudomonas aeruginosa = experiment: Growth testing against ESKAPE pathogens: Pseudomonas aeruginosa; type: cell-based; design: key: Growth; X: No Growth
Procedure: as §1

Enterococcus faecium = experiment: Growth testing against ESKAPE pathogens: Enterococcus faecium; type: cell-based; design: key: Growth; X: No Growth
Procedure: as §1

CCCCCC(=O)N1CCN(c2cc3c(cc2F)c(=O)c(C(=O)OC2C(=O)N(SC(C)CC)C2c2ccccc2Cl)cn3C2CC2)CC1 (centres unmarked) [Lactam 129]
G: Activity against Klebesiella pneumonia (growth observed) (Klebesiella pneumonia; 1 μg/ml) | Activity against Klebesiella pneumonia (growth observed) (Klebesiella pneumonia; 2 μg/ml) | Activity against Klebesiella pneumonia (growth observed) (Klebesiella pneumonia; 3 μg/ml) | Activity against Klebesiella pneumonia (growth observed) (Klebesiella pneumonia; 4 μg/ml) | Activity against Klebesiella pneumonia (growth observed) (Klebesiella pneumonia; 5 μg/ml) | Activity against Klebesiella pneumonia (growth observed) (Klebesiella pneumonia; 6 μg/ml) | Activity against Klebesiella pneumonia (growth observed) (Klebesiella pneumonia; 7 μg/ml) | Activity against Klebesiella pneumonia (growth observed) (Klebesiella pneumonia; 8 μg/ml) | Activity against Klebesiella pneumonia (growth observed) (Klebesiella pneumonia; 9 μg/ml) | Activity against Klebesiella pneumonia (growth observed) (Klebesiella pneumonia; 10 μg/ml) | Activity against Klebesiella pneumonia (growth observed) (Klebesiella pneumonia; 25 μg/ml) | Activity against Staphylococcus aureus (growth observed) (Staphylococcus aureus; 1 μg/ml) | Activity against Staphylococcus aureus (growth observed) (Staphylococcus aureus; 2 μg/ml) | Activity against Staphylococcus aureus (growth observed) (Staphylococcus aureus; 3 μg/ml) | Activity against Staphylococcus aureus (growth observed) (Staphylococcus aureus; 4 μg/ml) | Activity against Staphylococcus aureus (growth observed) (Staphylococcus aureus; 5 μg/ml) | Activity against Staphylococcus aureus (growth observed) (Staphylococcus aureus; 6 μg/ml) | Activity against Staphylococcus aureus (growth observed) (Staphylococcus aureus; 7 μg/ml) | Activity against Staphylococcus aureus (growth observed) (Staphylococcus aureus; 8 μg/ml) | Activity against Staphylococcus aureus (growth observed) (Staphylococcus aureus; 9 μg/ml) | Activity against Staphylococcus aureus (growth observed) (Staphylococcus aureus; 10 μg/ml) | Activity against Staphylococcus aureus (growth observed) (Staphylococcus aureus; 25 μg/ml) | Activity against Acinetobacter baumannii (growth observed) (Acinetobacter baumannii; 1 μg/ml) | Activity against Acinetobacter baumannii (growth observed) (Acinetobacter baumannii; 2 μg/ml) | Activity against Acinetobacter baumannii (growth observed) (Acinetobacter baumannii; 3 μg/ml) | Activity against Acinetobacter baumannii (growth observed) (Acinetobacter baumannii; 4 μg/ml) | Activity against Acinetobacter baumannii (growth observed) (Acinetobacter baumannii; 5 μg/ml) | Activity against Acinetobacter baumannii (growth observed) (Acinetobacter baumannii; 6 μg/ml) | Activity against Acinetobacter baumannii (growth observed) (Acinetobacter baumannii; 7 μg/ml) | Activity against Acinetobacter baumannii (growth observed) (Acinetobacter baumannii; 8 μg/ml) | Activity against Acinetobacter baumannii (growth observed) (Acinetobacter baumannii; 9 μg/ml) | Activity against Acinetobacter baumannii (growth observed) (Acinetobacter baumannii; 10 μg/ml) | Activity against Acinetobacter baumannii (growth observed) (Acinetobacter baumannii; 25 μg/ml) | Activity against Pseudomonas aeruginosa (growth observed) (Pseudomonas aeruginosa; 1 μg/ml) | Activity against Pseudomonas aeruginosa (growth observed) (Pseudomonas aeruginosa; 2 μg/ml) | Activity against Pseudomonas aeruginosa (growth observed) (Pseudomonas aeruginosa; 3 μg/ml) | Activity against Pseudomonas aeruginosa (growth observed) (Pseudomonas aeruginosa; 4 μg/ml) | Activity against Pseudomonas aeruginosa (growth observed) (Pseudomonas aeruginosa; 5 μg/ml) | Activity against Pseudomonas aeruginosa (growth observed) (Pseudomonas aeruginosa; 6 μg/ml) | Activity against Pseudomonas aeruginosa (growth observed) (Pseudomonas aeruginosa; 7 μg/ml) | Activity against Pseudomonas aeruginosa (growth observed) (Pseudomonas aeruginosa; 8 μg/ml) | Activity against Pseudomonas aeruginosa (growth observed) (Pseudomonas aeruginosa; 9 μg/ml) | Activity against Pseudomonas aeruginosa (growth observed) (Pseudomonas aeruginosa; 10 μg/ml) | Activity against Pseudomonas aeruginosa (growth observed) (Pseudomonas aeruginosa; 25 μg/ml) | Activity against Enterococcus faecium (growth observed) (Enterococcus faecium; 1 μg/ml) | Activity against Enterococcus faecium (growth observed) (Enterococcus faecium; 2 μg/ml) | Activity against Enterococcus faecium (growth observed) (Enterococcus faecium; 3 μg/ml) | Activity against Enterococcus faecium (growth observed) (Enterococcus faecium; 4 μg/ml) | Activity against Enterococcus faecium (growth observed) (Enterococcus faecium; 5 μg/ml) | Activity against Enterococcus faecium (growth observed) (Enterococcus faecium; 6 μg/ml) | Activity against Enterococcus faecium (growth observed) (Enterococcus faecium; 7 μg/ml) | Activity against Enterococcus faecium (growth observed) (Enterococcus faecium; 8 μg/ml) | Activity against Enterococcus faecium (growth observed) (Enterococcus faecium; 9 μg/ml) | Activity against Enterococcus faecium (growth observed) (Enterococcus faecium; 10 μg/ml) | Activity against Enterococcus faecium (growth observed) (Enterococcus faecium; 25 μg/ml)

CCCCCCC(=O)N1CCN(c2cc3c(cc2F)c(=O)c(C(=O)OC2C(=O)N(SC)C2c2ccccc2)cn3C2CC2)CC1 (centres unmarked) [Lactam 127]
G: Activity against Klebesiella pneumonia (growth observed) (Klebesiella pneumonia; 1 μg/ml) | Activity against Klebesiella pneumonia (growth observed) (Klebesiella pneumonia; 2 μg/ml) | Activity against Klebesiella pneumonia (growth observed) (Klebesiella pneumonia; 3 μg/ml) | Activity against Klebesiella pneumonia (growth observed) (Klebesiella pneumonia; 4 μg/ml) | Activity against Klebesiella pneumonia (growth observed) (Klebesiella pneumonia; 5 μg/ml) | Activity against Klebesiella pneumonia (growth observed) (Klebesiella pneumonia; 6 μg/ml) | Activity against Klebesiella pneumonia (growth observed) (Klebesiella pneumonia; 7 μg/ml) | Activity against Klebesiella pneumonia (growth observed) (Klebesiella pneumonia; 8 μg/ml) | Activity against Klebesiella pneumonia (growth observed) (Klebesiella pneumonia; 9 μg/ml) | Activity against Klebesiella pneumonia (growth observed) (Klebesiella pneumonia; 10 μg/ml) | Activity against Klebesiella pneumonia (growth observed) (Klebesiella pneumonia; 25 μg/ml) | Activity against Staphylococcus aureus (growth observed) (Staphylococcus aureus; 1 μg/ml) | Activity against Staphylococcus aureus (growth observed) (Staphylococcus aureus; 2 μg/ml) | Activity against Staphylococcus aureus (growth observed) (Staphylococcus aureus; 3 μg/ml) | Activity against Staphylococcus aureus (growth observed) (Staphylococcus aureus; 4 μg/ml) | Activity against Staphylococcus aureus (growth observed) (Staphylococcus aureus; 5 μg/ml) | Activity against Staphylococcus aureus (growth observed) (Staphylococcus aureus; 6 μg/ml) | Activity against Staphylococcus aureus (growth observed) (Staphylococcus aureus; 7 μg/ml) | Activity against Staphylococcus aureus (growth observed) (Staphylococcus aureus; 8 μg/ml) | Activity against Staphylococcus aureus (growth observed) (Staphylococcus aureus; 9 μg/ml) | Activity against Staphylococcus aureus (growth observed) (Staphylococcus aureus; 10 μg/ml) | Activity against Staphylococcus aureus (growth observed) (Staphylococcus aureus; 25 μg/ml) | Activity against Acinetobacter baumannii (growth observed) (Acinetobacter baumannii; 1 μg/ml) | Activity against Acinetobacter baumannii (growth observed) (Acinetobacter baumannii; 2 μg/ml) | Activity against Acinetobacter baumannii (growth observed) (Acinetobacter baumannii; 3 μg/ml) | Activity against Acinetobacter baumannii (growth observed) (Acinetobacter baumannii; 4 μg/ml) | Activity against Acinetobacter baumannii (growth observed) (Acinetobacter baumannii; 5 μg/ml) | Activity against Acinetobacter baumannii (growth observed) (Acinetobacter baumannii; 6 μg/ml) | Activity against Acinetobacter baumannii (growth observed) (Acinetobacter baumannii; 7 μg/ml) | Activity against Acinetobacter baumannii (growth observed) (Acinetobacter baumannii; 8 μg/ml) | Activity against Acinetobacter baumannii (growth observed) (Acinetobacter baumannii; 9 μg/ml) | Activity against Acinetobacter baumannii (growth observed) (Acinetobacter baumannii; 10 μg/ml) | Activity against Acinetobacter baumannii (growth observed) (Acinetobacter baumannii; 25 μg/ml) | Activity against Pseudomonas aeruginosa (growth observed) (Pseudomonas aeruginosa; 1 μg/ml) | Activity against Pseudomonas aeruginosa (growth observed) (Pseudomonas aeruginosa; 2 μg/ml) | Activity against Pseudomonas aeruginosa (growth observed) (Pseudomonas aeruginosa; 3 μg/ml) | Activity against Pseudomonas aeruginosa (growth observed) (Pseudomonas aeruginosa; 4 μg/ml) | Activity against Pseudomonas aeruginosa (growth observed) (Pseudomonas aeruginosa; 5 μg/ml) | Activity against Pseudomonas aeruginosa (growth observed) (Pseudomonas aeruginosa; 6 μg/ml) | Activity against Pseudomonas aeruginosa (growth observed) (Pseudomonas aeruginosa; 7 μg/ml) | Activity against Pseudomonas aeruginosa (growth observed) (Pseudomonas aeruginosa; 8 μg/ml) | Activity against Pseudomonas aeruginosa (growth observed) (Pseudomonas aeruginosa; 9 μg/ml) | Activity against Pseudomonas aeruginosa (growth observed) (Pseudomonas aeruginosa; 10 μg/ml) | Activity against Pseudomonas aeruginosa (growth observed) (Pseudomonas aeruginosa; 25 μg/ml) | Activity against Enterococcus faecium (growth observed) (Enterococcus faecium; 1 μg/ml) | Activity against Enterococcus faecium (growth observed) (Enterococcus faecium; 2 μg/ml) | Activity against Enterococcus faecium (growth observed) (Enterococcus faecium; 3 μg/ml) | Activity against Enterococcus faecium (growth observed) (Enterococcus faecium; 4 μg/ml) | Activity against Enterococcus faecium (growth observed) (Enterococcus faecium; 5 μg/ml) | Activity against Enterococcus faecium (growth observed) (Enterococcus faecium; 6 μg/ml) | Activity against Enterococcus faecium (growth observed) (Enterococcus faecium; 7 μg/ml) | Activity against Enterococcus faecium (growth observed) (Enterococcus faecium; 8 μg/ml) | Activity against Enterococcus faecium (growth observed) (Enterococcus faecium; 9 μg/ml) | Activity against Enterococcus faecium (growth observed) (Enterococcus faecium; 10 μg/ml) | Activity against Enterococcus faecium (growth observed) (Enterococcus faecium; 25 μg/ml)
